Laboratory results published in paper PMC3654088 (Cell metabolism, 2013).

Target: T1, Tam41 (Saccharomyces cerevisiae, UniProt P53230)
T1 sequence (P53230 27-385): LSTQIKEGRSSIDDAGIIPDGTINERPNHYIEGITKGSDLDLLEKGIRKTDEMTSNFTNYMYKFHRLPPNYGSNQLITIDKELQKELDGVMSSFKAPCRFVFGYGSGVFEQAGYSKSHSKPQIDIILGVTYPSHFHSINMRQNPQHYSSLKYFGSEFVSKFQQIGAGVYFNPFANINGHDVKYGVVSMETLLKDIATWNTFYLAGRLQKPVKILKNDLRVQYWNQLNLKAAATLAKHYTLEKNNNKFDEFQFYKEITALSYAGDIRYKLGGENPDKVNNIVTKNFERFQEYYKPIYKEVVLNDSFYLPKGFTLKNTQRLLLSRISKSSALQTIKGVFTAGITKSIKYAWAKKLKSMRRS
Test: CDP-DAG formation, TLC with fluorescence imaging
Assay type: biochemical
Details: 2 mM CTP; 2 mM MgCl2; Tris-HCl pH 7.5; 0.2% Triton X-100; 30 °C; 10 min; labelled compound

Km: 67 ± 10 µM
Substance: NBD-PA
